Test results taken from ChEMBL document CHEMBL1124317, “Rationale for the synthesis and preliminary biological evaluation of highly active new antitumor nitrosoureido sugars” (J Med Chem, 1989).

Legend:
Mus musculus [1] = species: Mus musculus; assay: Median survival time of the non surviving mice; there are single deaths on day 20, day 21, day 22, and day 25; four deaths occurred; format: functional, organism-based
Mus musculus [2] = assay: The number of L1210 leukemia mice survived after 60 days with compound in aqueous solution injected by a dose of 5 mg/kg intraperitoneally; 6/10; format: functional; details: route intraperitoneal
[3] = Number of mice died/no of mice treated with 5 mg/kg of compound in aqueous solution intraperitoneally with L1210 leukemia; 0/10; format: functional; details: route intraperitoneal
Mus musculus [4] = assay: The number of L1210 leukemia mice survived after 30 days with compound in aqueous solution injected by a dose of 5 mg/kg intraperitoneally; 6/10; format: functional; details: route intraperitoneal
Mus musculus [5] = assay: The number of L1210 Leukemia mice survived after 30 days with compound in olive oil injected by a dose of 20 mg/kg intraperitoneally; 15/15; format: functional; details: route intraperitoneal
Mus musculus [6] = assay: The number of B16 melanocarcinoma mice survived after 60 days with compound in olive oil injected by a dose of 20 mg/kg intraperitoneally; 1/20; format: functional; details: route intraperitoneal
Mus musculus [7] = assay: Median survival time of the non surviving mice; treated with 5 mg/kg of compound in olive oil to mice with L1210 leukemia and the value is mentioned in braces is range; format: functional
Mus musculus [8] = assay: The number of Lewis lung mice survived after 60 days with compound in olive oil injected by a dose of 20 mg/kg intraperitoneally; 15/20; format: functional; details: route intraperitoneal
Mus musculus [9] = assay: Anti tumor activity in olive oil when treated to mice with B16 melanocarcinoma with 5 mg/kg dose of compound intraperitoneally was expressed as percent of treated to control (T/C %); format: functional; details: route intraperitoneal
[10] = Ratio of mice died to that of mice treated with 20 mg/kg of compound in olive oil intraperitoneally with B16 Melanocarcinoma; 0/20; format: functional; details: route intraperitoneal
Mus musculus [11] = assay: The number of L1210 leukemia mice survived after 30 days with compound in aqueous solution injected by a dose of 20 mg/kg intraperitoneally; 0/10; format: functional; details: route intraperitoneal
[12] = Ratio of mice died to that of mice treated with 20 mg/kg of compound in olive oil intraperitoneally with L1210 leukemia tumor; 0/15; format: functional; details: route intraperitoneal
Mus musculus [13] = assay: The number of L1210 Leukemia mice survived after 60 days with compound in olive oil injected by a dose of 20 mg/kg intraperitoneally; 15/15; format: functional; details: route intraperitoneal
[14] = Ratio of mice died to that of mice treated with 20 mg/kg of compound in olive oil intraperitoneally with Lewis lung; 0/20; format: functional; details: route intraperitoneal
Mus musculus [15] = assay: The number of L1210 leukemia mice survived after 60 days with compound in aqueous solution injected by a dose of 20 mg/kg intraperitoneally; 0/10; format: functional; details: route intraperitoneal
[16] = Ratio of mice died to that of mice treated with 20 mg/kg of compound in aqueous solution intraperitoneally with L1210 leukemia; 0/10; format: functional; details: route intraperitoneal
Mus musculus [17] = assay: Anti tumor activity in olive oil when treated to mice with L1210 leukemia with 5 mg/kg dose of compound intraperitoneally was expressed as percent of treated to control; format: functional; details: route intraperitoneal
Mus musculus [18] = assay: The number of Lewis lung mice survived after 30 days with compound in olive oil injected by a dose of 20 mg/kg intraperitoneally; 20/20; format: functional; details: route intraperitoneal
Mus musculus [19] = assay: The number of B16 melanocarcinoma mice survived after 30 days with compound in olive oil injected by a dose of 20 mg/kg intraperitoneally; 14/20; format: functional; details: route intraperitoneal
Mus musculus [20] = assay: Median survival time of the non surviving mice; treated with 5 mg/kg of compound in olive oil to mice with B16 Melanocarcinoma; 13-51; format: functional
Mus musculus [21] = assay: The number of B16 melanocarcinoma mice survived after 30 days with compound in olive oil injected by a dose of 20 mg/kg intraperitoneally; 9/20; format: functional; details: route intraperitoneal
Mus musculus [22] = assay: The number of L1210 Leukemia mice survived after 30 days with compound in olive oil injected by a dose of 20 mg/kg intraperitoneally; 4/15; format: functional; details: route intraperitoneal
Mus musculus [23] = assay: Anti tumor activity in olive oil when treated to mice with L1210 leukemia with 20 mg/kg dose of compound intraperitoneally was expressed as percent of treated to control (T/C %); format: functional; details: route intraperitoneal
Mus musculus [24] = assay: The number of Lewis lung mice survived after 60 days with compound in olive oil injected by a dose of 20 mg/kg intraperitoneally; 8/20; format: functional; details: route intraperitoneal
Mus musculus [25] = assay: Median survival time of the non surviving mice; treated with 20 mg/kg of compound in olive oil to mice with B16 Melanocarcinoma; 23-45; format: functional
Mus musculus [26] = assay: Anti tumor activity in olive oil when treated to mice with Lewis lung with 20 mg/kg dose of compound intraperitoneally was expressed as percent of treated to control (T/C %); format: functional; details: route intraperitoneal
Mus musculus [27] = assay: The number of Lewis lung mice survived after 30 days with compound in olive oil injected by a dose of 20 mg/kg intraperitoneally; 13/20; format: functional; details: route intraperitoneal
Mus musculus [28] = assay: Median survival time of the non surviving mice; treated with 20 mg/kg of compound in olive oil to mice with L1210 leukemia tumor; 21-42; format: functional
Mus musculus [29] = assay: Anti tumor activity in olive oil when treated to mice with B16 melanocarcinoma with 20 mg/kg dose of compound intraperitoneally was expressed as percent of treated to control (T/C %); format: functional; details: route intraperitoneal
Mus musculus [30] = assay: The number of L1210 Leukemia mice survived after 60 days with compound in olive oil injected by a dose of 20 mg/kg intraperitoneally; 3/15; format: functional; details: route intraperitoneal
Mus musculus [31] = assay: Median survival time of the non surviving mice; treated with 20 mg/kg of compound in olive oil to mice with Lewis lung; 21-41; format: functional
Mus musculus [32] = assay: The number of B16 melanocarcinoma mice survived after 30 days with compound in olive oil injected by a dose of 20 mg/kg intraperitoneally; 1/20; format: functional; details: route intraperitoneal
Mus musculus [33] = assay: The number of Lewis lung mice survived after 60 days with compound in olive oil injected by a dose of 20 mg/kg intraperitoneally; 6/20; format: functional; details: route intraperitoneal
Mus musculus [34] = assay: The number of B16 melanocarcinoma mice survived after 60 days with compound in olive oil injected by a dose of 20 mg/kg intraperitoneally; 0/20; format: functional; details: route intraperitoneal
Mus musculus [35] = assay: The number of Lewis lung mice survived after 30 days with compound in olive oil injected by a dose of 20 mg/kg intraperitoneally; 14/20; format: functional; details: route intraperitoneal
Mus musculus [36] = assay: Median survival time of the non surviving mice; treated with 20 mg/kg of compound in olive oil to mice with Lewis lung; 19-46; format: functional
Mus musculus [37] = assay: Median survival time of the non surviving mice; treated with 20 mg/kg of compound in olive oil to mice with B16 Melanocarcinoma; 20-32; format: functional
Mus musculus [38] = assay: Median survival time of the non surviving mice; treated with 0.625 mg/kg of compound to mice with L1210 leukemia; 9-10; format: functional
Mus musculus [39] = assay: Anti tumor activity l when treated to mice with L1210 leukemia with 1.25 mg/kg dose of compound intraperitoneally was expressed as percent of treated to control (T/C %); format: functional; details: route intraperitoneal
Mus musculus [40] = assay: Anti tumor activity in olive oil when treated to mice with L1210 leukemia with 5 mg/kg dose of compound intraperitoneally was expressed as percent of treated to control (T/C %); format: functional; details: route intraperitoneal
Mus musculus [41] = assay: The number of L1210 leukemia mice survived after 60 days with compound in aqueous solution injected by a dose of 5 mg/kg intraperitoneally; 0/10; format: functional; details: route intraperitoneal
Mus musculus [42] = assay: Median survival time of the non surviving mice; treated with 5 mg/kg of compound in olive oil to mice with L1210 leukemia; 16-19; format: functional
[43] = Mortality range of the mice with L1210 leukemia treated with 2.5 mg/kg of dose intraperitoneally with no of mice survived/no of mice treated; 0/8; format: functional; details: route intraperitoneal
Mus musculus [44] = assay: The number of L1210 leukemia mice survived after 30 days with compound injected by a dose of 2.5 mg/kg intraperitoneally; 0/8; format: functional; details: route intraperitoneal
Mus musculus [45] = assay: Anti tumor activity l when treated to mice with L1210 leukemia with 0.625 mg/kg dose of compound intraperitoneally was expressed as percent of treated to control (T/C %); format: functional; details: route intraperitoneal
Mus musculus [46] = assay: The number of L1210 leukemia mice survived after 30 days with compound injected by a dose of 10 mg/kg intraperitoneally; 8/8; format: functional; details: route intraperitoneal
Mus musculus [47] = assay: The number of L1210 leukemia mice survived after 30 days with compound injected by a dose of 1.25 mg/kg intraperitoneally; 0/8; format: functional; details: route intraperitoneal
[48] = Mortality range of the mice with L1210 leukemia treated with 0.625 mg/kg of dose intraperitoneally with no of mice survived/no of mice treated; 0/8; format: functional; details: route intraperitoneal
[49] = Mortality range of the mice with L1210 leukemia treated with 1.25 mg/kg of dose intraperitoneally with no of mice survived/no of mice treated; 0/8; format: functional; details: route intraperitoneal
Mus musculus [50] = assay: Anti tumor activity l when treated to mice with L1210 leukemia with 5 mg/kg dose of compound intraperitoneally was expressed as percent of treated to control (T/C %); format: functional; details: route intraperitoneal
Mus musculus [51] = assay: The number of L1210 leukemia mice survived after 30 days with compound injected by a dose of 5 mg/kg intraperitoneally; 0/8; format: functional; details: route intraperitoneal
[52] = Mortality range of the mice with L1210 leukemia treated with 5 mg/kg of dose intraperitoneally with no of mice survived/no of mice treated; 0/8; format: functional; details: route intraperitoneal
Mus musculus [53] = assay: Median survival time of the non surviving mice; treated with 5 mg/kg of compound to mice with L1210 leukemia; 18-24; format: functional
Mus musculus [54] = assay: Median survival time of the non surviving mice; treated with 2.5 mg/kg of compound to mice with L1210 leukemia; 11-12; format: functional
Mus musculus [55] = assay: Median survival time of the non surviving mice; treated with 1.25 mg/kg of compound to mice with L1210 leukemia; 9-11; format: functional
Mus musculus [56] = assay: The number of L1210 leukemia mice survived after 30 days with compound in aqueous solution injected by a dose of 5 mg/kg intraperitoneally; 0/10; format: functional; details: route intraperitoneal
Mus musculus [57] = assay: Anti tumor activity l when treated to mice with L1210 leukemia with 2.5 mg/kg dose of compound intraperitoneally was expressed as percent of treated to control (T/C %); format: functional; details: route intraperitoneal
[58] = Mortality range of the mice with L1210 leukemia treated with 10 mg/kg of dose intra peritoneally with no of mice survived/no of mice treated; 0/8; format: functional
Mus musculus [59] = assay: The number of L1210 leukemia mice survived after 30 days with compound injected by a dose of 0.625 mg/kg intraperitoneally; 0/8; format: functional; details: route intraperitoneal

CO[C@H]1C[C@@H](NC(=O)N(CCCl)N=O)[C@H](O)[C@@H](CO)O1
Number of deaths (Mus musculus [1]): 4
Survivals (Mus musculus [2]): 6
Ratio [3]: 0
Survivals (Mus musculus [4]): 6

CO[C@@H]1C[C@@H](NC(=O)N(CCCl)N=O)[C@H](O)[C@@H](C)O1
Survivals (Mus musculus [5]): 15
Survivals (Mus musculus [6]): 1
Median survival time (Mus musculus [7]): 14.2
Survivals (Mus musculus [8]): 15
T/C (Mus musculus [9]): 260%
Ratio [10]: 0
Survivals (Mus musculus [11]): 0
Ratio [12]: 0
Survivals (Mus musculus [13]): 15
Ratio [14]: 0
Survivals (Mus musculus [15]): 0
Ratio [16]: 0
T/C (Mus musculus [17]): 150%
Survivals (Mus musculus [18]): 20
Survivals (Mus musculus [19]): 14
Median survival time (Mus musculus [20]): 36.25

COC1CC(O)C(O)C(CNC(=O)N(CCCl)N=O)O1 (stereo unspecified)
Survivals (Mus musculus [6]): 1
Survivals (Mus musculus [21]): 9
Survivals (Mus musculus [22]): 4
Ratio [10]: 0
T/C (Mus musculus [23]): 263%
Survivals (Mus musculus [24]): 8
Ratio [12]: 0
Median survival time (Mus musculus [25]): 30
Ratio [14]: 0
T/C (Mus musculus [26]): 313%
Survivals (Mus musculus [27]): 13
Median survival time (Mus musculus [28]): 23.5
T/C (Mus musculus [29]): 215%
Survivals (Mus musculus [30]): 3
Median survival time (Mus musculus [31]): 39

COC1CC(NC(=O)N(CCCl)N=O)C(OC)C(C)O1 (stereo unspecified)
Survivals (Mus musculus [32]): 1
Survivals (Mus musculus [5]): 15
Survivals (Mus musculus [33]): 6
Survivals (Mus musculus [34]): 0
Ratio [10]: 0
Ratio [12]: 0
Survivals (Mus musculus [13]): 15
Ratio [14]: 0
T/C (Mus musculus [26]): 281%
T/C (Mus musculus [29]): 170%
Survivals (Mus musculus [35]): 14
Median survival time (Mus musculus [36]): 35
Median survival time (Mus musculus [37]): 23.62

O=NN(CCCl)C(=O)NCCCl [CARMUSTINE]
Median survival time (Mus musculus [38]): 9.4
T/C (Mus musculus [39]): 110%
T/C (Mus musculus [40]): 177%
Survivals (Mus musculus [41]): 0
Median survival time (Mus musculus [42]): 16.75
Ratio [43]: 0
Survivals (Mus musculus [44]): 0
T/C (Mus musculus [45]): 104%
Survivals (Mus musculus [46]): 8
Survivals (Mus musculus [47]): 0
Ratio [48]: 0
Ratio [3]: 0
Ratio [49]: 0
T/C (Mus musculus [50]): 220%
Survivals (Mus musculus [51]): 0
Ratio [52]: 0
Median survival time (Mus musculus [53]): 19.8
Median survival time (Mus musculus [54]): 11.5
Median survival time (Mus musculus [55]): 9.9
Survivals (Mus musculus [56]): 0
T/C (Mus musculus [57]): 128%
Ratio [58]: 0
Survivals (Mus musculus [59]): 0
